# Legend:
# [1] = test system: MaTu-ADR; experiment: Proliferation assay, MaTu-ADR; type: cell-based, human; conditions: MaTu-ADR cells, 4 days, crystal violet
# Excerpt: (§1) Cultivated human tumor cells (MCF7, […] human breast cancer cells, related to ATCC HTB22; NCI-H460, human non-small-cell lung cancer cells, ATCC HTB-177, HCT 116, human colon cancer cells, ATCC CCL-247; DU 145, hormone-independent human prostate cancer cells, ATCC HTB-81; MaTu-MDR, hormone-independent, multiple pharmaceutical agent-resistant human breast cancer cells, EPO-GmbH, Berlin) were flattened out at a density of about 5000 cells/measuring point, depending on the growth rate of the respective cells, in a 96-well multititer plate in 200 μl of the corresponding growth medium. After 24 hours, the cells of one plate (zero-point plate) were colored with crystal violet (see below), while the medium of the other plates was replaced by fresh culture medium (200 μl), to which the test substances were added in various concentrations (0 μm, as well as in the range of 0.01-30 μm; the final concentration of the solvent dimethyl sulfoxide was 0.5%). The cells were incubated for 4 days in the presence of test substances. The cell proliferation was determined by coloring the cells with crystal violet: the cells were fixed by adding 20 μl/measuring point of an 11% glutaric aldehyde solution for 15 minutes at room temperature. After three washing cycles of the fixed cells with water, the plates were dried at room temperature. The cells were colored by adding 100 μl/measuring point of a 0.1% crystal violet solution (the pH was set at 3 by adding acetic acid). After three washing cycles of the colored cells with water, the plates were dried at room temperature. The dye was dissolved by adding 100 μl/measuring point of a 10% acetic acid solution. The extinction was determined by photometry at a wavelength of 595 nm The change of cell growth, in percent, was calculated by normalization of the measured values to the extinction values of the zero-point plate (=0%) and the extinction of the untreated (0 μm) cells (=100%).
# [2] = test system: MCF7; experiment: Proliferation assay, MCF7; type: cell-based, human; conditions: MCF7 cells, 4 days, crystal violet
# Excerpt: as §1
# [3] = test system: H460; experiment: Proliferation assay, H460; type: cell-based, human; conditions: H460 cells, 4 days, crystal violet
# Excerpt: as §1
# [4] = test system: DU145; experiment: Proliferation assay, DU145; type: cell-based, human; conditions: DU145 cells, 4 days, crystal violet
# Excerpt: as §1
# [5] = molecular target: CDK2/CycE (Homo sapiens (Human), UniProt P24941); experiment: CDK2/CycE kinase assay; type: biochemical; conditions: histone IIIS substrate, 0.5 μm ATP
# Protocol: Recombinant CDK2- and CycE-GST-fusion proteins, purified from baculovirus-infected insect cells (Sf9), were purchased by ProQinase GmbH, Freiburg. Histone IIIs, which was used as a kinase substrate, was purchased by the Sigma Company.
# CDK2/CycE (50 ng/measuring point) was incubated for 15 minutes at 22° C. in the presence of various concentrations of test substances (0 μm, as well as within the range of 0.01-100 μm) in assay buffer [50 mmol of tris/HCl, pH 8.0, 10 mmol of MgCl2, 0.1 mmol of Na ortho-vanadate, 1.0 mmol of dithiothreitol, 0.5 μm of adenosine triphosphate (ATP), 10 μg/measuring point of histone IIIS, 0.2 μCi/measuring point of ^33P-gamma ATP, 0.05% NP40, 12.5% dimethyl sulfoxide]. The reaction was stopped by adding EDTA solution (250 mmol, pH 8.0, 14 μl/measuring point).
# (§2) From each reaction batch, 10 μl was applied to P30 filter strips (Wallac Company), and non-incorporated ^33P-ATP was removed by subjecting the filter strips to three washing cycles for 10 minutes each in 0.5% phosphoric acid. After the filter strips were dried for one hour at 70° C., the filter strips were covered with scintillator strips (MeltiLex™ A, Wallac Company) and baked for one hour at 90° C. The amount of incorporated ^33P (substrate phosphorylation) was determined by scintillation measurement in a gamma-radiation measuring device (Wallac).
# [6] = molecular target: CDK1/CycB (Homo sapiens (Human), UniProt P06493); experiment: CDK1/CycB kinase assay; type: biochemical; conditions: histone IIIS substrate, 0.5 μm ATP
# Protocol: Recombinant CDK1- and CycB-GST-fusion proteins, purified from baculovirus-infected insect cells (Sf9), were purchased from ProQinase GmbH, Freiburg. Histone IIIS, used as a kinase substrate, is available commercially from the Sigma Company.
# The reaction was stopped by adding EDTA solution (250 mmol, pH 8.0, 14 μl/measuring point).
# as §2, with “33P-ATP” for “^33P-ATP”, “33P” for “^33P”
# [7] = molecular target: VEGF-R2 (Homo sapiens (Human), UniProt P35968); experiment: VEGF receptor-2 kinase assay; type: biochemical; conditions: poly-(Glu4Tyr) substrate, 8 μmol ATP
# Protocol: Recombinant VEGF receptor tyrosine kinase-2 was purified as a GST fusion protein from baculovirus-infected insect cells (Sf9). Poly-(Glu4Tyr), which was used as a kinase substrate, was purchased by the Sigma Company.
# VEGF receptor tyrosine kinase (90 ng/measuring point) was incubated for 10 minutes at 22° C. in the presence of various concentrations of test substances (0 μm, as well as within the range of 0.001-30 μm) in 30 μl of assay buffer [40 mmol of Tris/HCl, […], 10 mmol of MgCl2, 1 mmol of MnCl2, 3 μmol of Na ortho-vanadate, 1.0 mmol of dithiothreitol, 8 μmol of adenosine trisphosphate (ATP), 27 μg/measuring point of poly-(Glu4Tyr), 0.2 μCi/measuring point of 33P-gamma ATP, 1% dimethyl sulfoxide]. The reaction was stopped by adding EDTA solution (250 mmol, pH 7.0, 10 μl/measuring point).
# as §2, with “33P-ATP” for “^33P-ATP”, “33P” for “^33P”
# Sequence of CDK1/CycB (P06493 whole entry, the tested form may be a part): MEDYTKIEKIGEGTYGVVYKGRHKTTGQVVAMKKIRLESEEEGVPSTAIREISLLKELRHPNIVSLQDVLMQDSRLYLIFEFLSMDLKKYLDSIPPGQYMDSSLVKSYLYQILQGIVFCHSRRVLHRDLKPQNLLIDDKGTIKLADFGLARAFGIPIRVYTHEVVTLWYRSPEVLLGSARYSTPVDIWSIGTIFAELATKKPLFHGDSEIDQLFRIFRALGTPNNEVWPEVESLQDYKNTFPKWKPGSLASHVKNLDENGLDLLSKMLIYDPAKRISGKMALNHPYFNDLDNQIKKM
# Sequence of CDK1/CycB (P14635 whole entry partner, the tested form may be a part): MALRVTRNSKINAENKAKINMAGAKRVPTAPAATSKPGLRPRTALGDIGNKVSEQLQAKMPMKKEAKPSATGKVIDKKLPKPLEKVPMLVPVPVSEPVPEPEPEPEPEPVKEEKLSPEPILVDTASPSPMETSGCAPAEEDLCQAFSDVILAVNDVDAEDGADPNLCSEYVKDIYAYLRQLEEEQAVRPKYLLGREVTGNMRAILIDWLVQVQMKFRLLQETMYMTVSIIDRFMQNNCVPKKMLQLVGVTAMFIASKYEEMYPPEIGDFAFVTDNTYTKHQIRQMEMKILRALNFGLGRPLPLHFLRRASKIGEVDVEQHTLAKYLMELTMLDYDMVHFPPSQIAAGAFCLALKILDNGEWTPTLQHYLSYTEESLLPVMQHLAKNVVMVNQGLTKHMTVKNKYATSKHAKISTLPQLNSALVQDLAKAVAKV
# Sequence of VEGF-R2 (P35968 20-1356, species assumed): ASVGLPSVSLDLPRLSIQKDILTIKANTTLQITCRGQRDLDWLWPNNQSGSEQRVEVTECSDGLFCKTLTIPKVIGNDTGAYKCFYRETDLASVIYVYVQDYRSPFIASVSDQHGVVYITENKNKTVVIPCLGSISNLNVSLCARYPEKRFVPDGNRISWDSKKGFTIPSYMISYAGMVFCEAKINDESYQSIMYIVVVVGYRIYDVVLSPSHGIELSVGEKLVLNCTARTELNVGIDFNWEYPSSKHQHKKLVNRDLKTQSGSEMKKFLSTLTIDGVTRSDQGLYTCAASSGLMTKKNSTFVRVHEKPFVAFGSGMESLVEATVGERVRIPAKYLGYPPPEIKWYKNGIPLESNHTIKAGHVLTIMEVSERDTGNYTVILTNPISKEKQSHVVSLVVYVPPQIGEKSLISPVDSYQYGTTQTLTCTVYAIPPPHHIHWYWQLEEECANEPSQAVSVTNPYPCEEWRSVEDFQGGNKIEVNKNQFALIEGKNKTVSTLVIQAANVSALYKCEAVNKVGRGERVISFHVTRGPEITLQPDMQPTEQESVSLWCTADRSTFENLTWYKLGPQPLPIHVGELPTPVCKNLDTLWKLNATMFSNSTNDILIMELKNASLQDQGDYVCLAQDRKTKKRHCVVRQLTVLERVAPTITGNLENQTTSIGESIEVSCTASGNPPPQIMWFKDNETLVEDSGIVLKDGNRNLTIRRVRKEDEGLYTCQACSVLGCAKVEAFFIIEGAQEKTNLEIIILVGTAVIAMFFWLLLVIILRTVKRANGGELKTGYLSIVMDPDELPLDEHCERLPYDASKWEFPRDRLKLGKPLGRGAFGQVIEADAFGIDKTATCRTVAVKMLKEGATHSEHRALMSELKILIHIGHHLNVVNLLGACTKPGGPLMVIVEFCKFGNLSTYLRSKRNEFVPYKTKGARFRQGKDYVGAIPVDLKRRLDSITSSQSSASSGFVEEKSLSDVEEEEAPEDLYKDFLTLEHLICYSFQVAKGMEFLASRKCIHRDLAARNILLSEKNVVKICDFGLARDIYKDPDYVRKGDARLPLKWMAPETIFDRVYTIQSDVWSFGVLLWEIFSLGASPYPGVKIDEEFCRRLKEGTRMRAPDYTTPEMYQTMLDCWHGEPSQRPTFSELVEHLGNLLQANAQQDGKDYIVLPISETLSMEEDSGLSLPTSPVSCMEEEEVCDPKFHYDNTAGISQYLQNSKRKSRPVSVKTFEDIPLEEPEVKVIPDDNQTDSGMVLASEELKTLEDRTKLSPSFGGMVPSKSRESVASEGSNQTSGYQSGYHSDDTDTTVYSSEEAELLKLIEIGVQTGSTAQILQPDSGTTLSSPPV
Compound,"IC50 ([1]; Homo sapiens, 96 h) [nM]","IC50 ([2]; Homo sapiens, MCF7, 96 h) [nM]","IC50 ([3]; Homo sapiens, NCI-H460, 96 h) [nM]","IC50 ([4]; Homo sapiens, DU-145, 96 h) [nM]",IC50 [5] [nM],IC50 [6] [nM],IC50 [7] [nM],IC50 [1] [nM],IC50 [3] [nM],IC50 [4] [nM],IC50 [2] [nM]
"C[C@@H](Nc1nc(Nc2ccc(S(C)(=N)=O)cc2)ncc1Br)C(C)(C)O (single isomer, unassigned) [Example 1.42]",< 100,150,< 100,170,–,–,–,–,–,–,–
"Cc1cc(Nc2ncc(Br)c(N[C@H](C)C(C)(C)O)n2)ccc1S(C)(=N)=O (single isomer, unassigned) [Example 1.59]",< 100,110,< 100,< 100,–,–,–,–,–,–,–
"COC[C@@H](Nc1nc(Nc2ccc(S(C)(=N)=O)cc2)ncc1Br)[C@@H](C)O (mixture of isomers) [Example 1.46, (RS)-S-{4-[(5-bromo-4-{[(1R,2R)-2-hydroxy-1-(methoxymethyl)-propyl]amino}pyrimidin-2-yl)amino]phenyl}-S-methyl sulfoximide]",200,200,110,170,–,–,–,–,–,–,–
"COC[C@@H](Nc1nc(Nc2ccc(S(C)(=N)=O)cc2)ncc1Br)[C@@H](C)O (single isomer, unassigned) [Example 1.47]",800,600,600,600,6,–,–,–,–,–,–
"C[C@@H](Nc1nc(Nc2ccc(S(=N)(=O)CCO)cc2)ncc1Br)C(C)(C)O (single isomer, unassigned) [Example 1.15]",300,180,200,300,–,25,59,–,–,–,–
"Cc1cc(Nc2ncc(Br)c(N[C@H](C)C(C)(C)O)n2)ccc1S(C)(=N)=O (mixture of isomers) [Example 1.57, (RS)—S-[4-({5-bromo-4-[(R)-(2-hydroxy-1,2-dimethylpropyl)amino]pyrimidin-2-yl}amino)-2-methylphenyl]-S-methyl sulfoximide]",–,–,–,–,–,–,–,90,120,110,–
"CCS(=N)(=O)c1ccc(Nc2ncc(Br)c(N[C@H](C)C(C)(C)O)n2)cc1 (mixture of isomers) [Example 1.55, (RS)-S-[4-({5-bromo-4-[(R)-(2-hydroxy-1,2-dimethylpropyl)amino]pyrimidin-2-yl}amino)phenyl]-S-ethyl sulfoximide]",–,–,–,–,–,–,–,150,300,300,300
"CCS(=N)(=O)c1ccc(Nc2ncc(Br)c(N[C@H](C)[C@@H](C)O)n2)cc1 (single isomer, unassigned) [Example 1.53]",–,300,–,–,4,–,–,–,–,–,–
"CCS(=N)(=O)c1ccc(Nc2ncc(Br)c(N[C@H](COC)[C@@H](C)O)n2)cc1 (mixture of isomers) [Example 1.49, (RS)-S-{4-[(5-bromo-4-{[(1R,2R)-2-hydroxy-1-(methoxymethyl)-propyl]amino}pyrimidin-2-yl)amino]phenyl}-S-ethyl sulfoximide]",–,–,–,–,–,–,–,600,400,300,300
"Cc1cc(Nc2ncc(Br)c(N[C@H](C)C(C)(C)O)n2)ccc1S(C)(=N)=O (mixture of isomers) [Example 1.58, (RS)-S-[4-({5-bromo-4-[(R)-(2-hydroxy-1,2-dimethylpropyl)amino]pyrimidin-2-yl}amino)-2-methylphenyl]-S-methyl sulfoximide]",–,–,–,–,–,–,–,40,30,30,60
